One assay concerns the target T1, ανβ3 receptor (Homo sapiens, UniProt P05106+P06756).
T1 construct: endothelial cells known to express ανβ3 receptors on their surface (HBEC cells); endogenous in cells; host or cells: HBEC endothelial cells
In words: whole cell adhesion inhibition assay (HBEC cells on vitronectin-coated plates). The format is cell-based. As to conditions: for inhibition of HBEC adhesion (in words): 100 uM. An excerpt:
Biological Assay Studies: A biological whole cell adhesion inhibition assay was developed to evaluate the synthesized macrocyclic RGD mimetics. This assay uses endothelial cells known to express ανβ3 receptors on their surface (HBEC cells) and also known to require vitronectin binding at the ανβ3 receptor to initiate adhesion processes. Vitronectin was coated on microtiter plates and exposed to cell suspensions. As the target molecules prepared herein compete with vitronectin for binding at the ανβ3 they will interfere with the adhesion process. This can be used to quantify/rank their ability to do so. The amount of ανβ3 mediated adhesion was determined by cell staining with subsequent quantitation by UV absorption proportional to the amount of stain present. This test procedure has been optimized with regard to vitronectin quantities, cell numbers, volumes, times, and the cell staining process.

A further assay relates to Leydig cell tumor. As to conditions: mouse-based Leydig cell tumor model; cited from earlier work.

The values below come from patent US20070104645A1, “Chelate based scaffolds in tumor targeting” (priority 2003, published 2007).

Structures are written as SMILES. Square brackets hold non-standard residues; d marks the D form. Peptide text beside a SMILES is read from it. Ava = NCCCCC(=O)O

T1 sequence (P06756 31-889 limits assumed): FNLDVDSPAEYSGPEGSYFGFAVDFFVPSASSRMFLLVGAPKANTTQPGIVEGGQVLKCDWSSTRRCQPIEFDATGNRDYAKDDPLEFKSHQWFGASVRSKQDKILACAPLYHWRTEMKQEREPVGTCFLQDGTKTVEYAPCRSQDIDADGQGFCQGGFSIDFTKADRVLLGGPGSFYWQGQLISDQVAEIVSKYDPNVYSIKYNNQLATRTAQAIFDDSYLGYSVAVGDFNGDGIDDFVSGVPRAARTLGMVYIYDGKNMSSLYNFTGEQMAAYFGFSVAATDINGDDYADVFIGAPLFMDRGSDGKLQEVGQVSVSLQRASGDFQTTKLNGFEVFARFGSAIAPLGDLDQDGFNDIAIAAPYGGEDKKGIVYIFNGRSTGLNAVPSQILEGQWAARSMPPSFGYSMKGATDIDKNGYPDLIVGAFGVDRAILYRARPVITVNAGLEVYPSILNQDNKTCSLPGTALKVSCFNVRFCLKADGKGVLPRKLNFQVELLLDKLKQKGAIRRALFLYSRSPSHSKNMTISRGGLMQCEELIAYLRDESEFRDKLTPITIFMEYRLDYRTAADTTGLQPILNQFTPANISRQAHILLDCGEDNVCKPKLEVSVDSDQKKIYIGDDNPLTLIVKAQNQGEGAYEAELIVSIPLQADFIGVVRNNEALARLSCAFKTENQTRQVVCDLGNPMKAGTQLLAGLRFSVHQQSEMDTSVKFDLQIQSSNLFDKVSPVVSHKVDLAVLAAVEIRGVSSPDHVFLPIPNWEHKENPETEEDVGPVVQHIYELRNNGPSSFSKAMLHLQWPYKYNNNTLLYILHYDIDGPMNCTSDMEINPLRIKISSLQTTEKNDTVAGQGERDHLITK
T1 sequence (P06756 891-1048 partner limits assumed): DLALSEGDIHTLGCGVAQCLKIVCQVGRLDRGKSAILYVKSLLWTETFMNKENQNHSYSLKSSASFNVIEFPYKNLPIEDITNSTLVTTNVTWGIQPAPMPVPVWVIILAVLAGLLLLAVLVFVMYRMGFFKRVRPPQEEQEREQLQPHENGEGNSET
T1 sequence (P05106 27-788): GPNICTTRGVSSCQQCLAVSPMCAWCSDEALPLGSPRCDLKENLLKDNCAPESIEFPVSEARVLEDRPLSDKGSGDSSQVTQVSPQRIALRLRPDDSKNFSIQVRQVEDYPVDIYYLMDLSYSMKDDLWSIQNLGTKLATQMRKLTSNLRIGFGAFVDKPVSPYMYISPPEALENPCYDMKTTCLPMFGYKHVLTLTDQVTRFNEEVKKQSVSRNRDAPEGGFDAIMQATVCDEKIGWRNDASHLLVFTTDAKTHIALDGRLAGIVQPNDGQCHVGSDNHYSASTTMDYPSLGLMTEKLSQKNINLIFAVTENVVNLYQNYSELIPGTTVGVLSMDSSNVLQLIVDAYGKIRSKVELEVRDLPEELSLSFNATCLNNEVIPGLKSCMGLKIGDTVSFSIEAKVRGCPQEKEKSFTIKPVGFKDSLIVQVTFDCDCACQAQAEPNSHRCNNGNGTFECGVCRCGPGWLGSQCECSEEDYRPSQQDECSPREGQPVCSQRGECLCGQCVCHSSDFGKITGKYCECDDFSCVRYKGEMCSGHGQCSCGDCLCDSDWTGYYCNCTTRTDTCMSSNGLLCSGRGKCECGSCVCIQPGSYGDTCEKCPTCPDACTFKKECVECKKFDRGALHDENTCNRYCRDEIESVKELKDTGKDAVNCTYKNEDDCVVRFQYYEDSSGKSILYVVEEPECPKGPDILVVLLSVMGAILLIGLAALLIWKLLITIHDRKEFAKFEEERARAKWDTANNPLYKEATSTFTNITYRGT

For `[H]/N=C(/N)NCCCC(N)C(=O)NCC(=O)NC(CC(=O)O)C(=O)NC(CO)C(=O)O` (stereo not shown) [RGDS], the “inhibition of HBEC adhesion (in words)” value on ανβ3 receptor is given as “decreased it completely”. Besides, at ανβ3 receptor (20 uMolar), the “decrease in amount of adhesion” value was determined as 69%.

`NC(N)=Nc1cccc(C(=O)NCC(=O)NC(CC(=O)O)c2cc(Cl)cc(Cl)c2)c1` (stereo not shown) [SC-68448]: the “reduction in tumor growth” value with Leydig cell tumor is reported as “up to 80%”.

For the compound `NCCCCC(=O)NCC(=O)NC(CC(=O)O)C(=O)NC(CO)C(=O)O` (stereo not shown) [lot A015-82PBS] (H-[Ava]GDS-OH; configuration not given here), the “inhibition of HBEC adhesion (in words)” value at ανβ3 receptor was “completely inactive”.
